Like-named read-outs stand apart in the source and are kept apart here. Peptide text beside a SMILES is read from it. * marks the point of attachment. Dnp = O=[N+]([O-])c1ccc(*)c([N+](=O)[O-])c1; Mca = COc1ccc2c(CC(=O)*)cc(=O)oc2c1
Key:
meprin α [1] = details: cited from earlier work
meprin β [2] = details: cited from earlier work
MMP and ADAM = details: cited from earlier work; for effect on MMP and ADAM activity: 200 µM inhibitor
meprin α [3] = biological target: T1, meprin α (Homo sapiens, UniProt Q16819); assay: Kinetic parameters of meprin α mediated proteolysis of its substrate; format: biochemical; details: proteolysis by meprin α, 25 °C
T1 sequence (Q16819 66-593 limits assumed): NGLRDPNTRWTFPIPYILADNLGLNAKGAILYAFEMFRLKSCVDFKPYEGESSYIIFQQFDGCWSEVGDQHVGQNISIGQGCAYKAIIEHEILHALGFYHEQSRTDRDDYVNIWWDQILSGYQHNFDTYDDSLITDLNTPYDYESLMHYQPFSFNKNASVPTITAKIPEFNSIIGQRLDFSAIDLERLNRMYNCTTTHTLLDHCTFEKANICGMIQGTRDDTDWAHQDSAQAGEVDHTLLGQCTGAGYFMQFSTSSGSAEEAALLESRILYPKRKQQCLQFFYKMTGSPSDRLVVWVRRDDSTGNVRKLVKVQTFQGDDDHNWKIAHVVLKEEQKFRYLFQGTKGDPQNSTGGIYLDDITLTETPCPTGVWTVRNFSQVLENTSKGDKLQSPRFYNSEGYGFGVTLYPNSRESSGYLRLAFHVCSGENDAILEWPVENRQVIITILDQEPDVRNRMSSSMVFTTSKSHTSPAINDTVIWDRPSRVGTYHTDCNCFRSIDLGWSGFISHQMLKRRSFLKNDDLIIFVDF
Protocol: Next, we performed substrate optimization to achieve balanced assay conditions defined as [S]/KM = 1 [19]. In order to do that, we first determined kinetic parameters of proteolysis of meprin α and meprin β substrates by the respective enzymes (Figure 4A,B). […] To optimize substrate concentrations, both assays were run for 90 min at three different substrate concentrations (10, 5, and 2.5 µM) which included the concentration at which the assays were recapitulated in 1536 wpf (10 µM for both meprin α and meprin β) and the concentration approximating [S]/KM = 1 condition (2.5 µM). Enzyme concentrations were fixed at 1.3 nM for meprin α and 0.0125 nM for meprin β. […]
Substrate stock solutions were prepared at various concentrations in HTS assay buffer (50 mM Hepes, 0.01% Brij-35, pH 7.5). […] Fluorescence was measured on a multimode microplate reader Synergy H1 (Biotek Instruments, Winooski, VT, USA) using λexcitation = 324 nm and λemission = 393 nm. Rates of hydrolysis were obtained from plots of fluorescence versus time, using data points from only the linear portion of the hydrolysis curve. The slope from these plots was divided by the fluorescence change corresponding to complete hydrolysis and then multiplied by the substrate concentration to obtain rates of hydrolysis in units of μM/s. […]

meprin α [4] = biological target: T1, meprin α; assay: Meprin α assay, fluorogenic substrate (Mca)-YVADAPK-(K-ε-Dnp), 384 and 1536 well plate formats; format: biochemical
Description: (§1) The meprin α and meprin β assays, which utilize the substrates (Mca)-YVADAPK-(K-ε-Dnp) and (Mca)-EDEDED-(K-ε-Dnp), respectively, have been described previously. To enable an ultra-high-throughput screening (uHTS) campaign, we proceeded to miniaturize both assays to 1536 well plate format (wpf). First, we recapitulated the assays in 1536 well plate using reagents at the same concentrations as in 384 well plate format assays by scaling the volume down by the factor of 2.5.
(§2) Both assays followed the same general protocol. A 5 µL measure of 2 × enzyme solution (2.6 and 0.1 nM for meprin α and meprin β, respectively) in assay buffer (50 mM Hepes, 0.01% Brij-35, pH 7.5) was added to solid bottom black 384 low volume plates (Nunc, cat# 264705). Next, 75 nL of test compounds or pharmacological control (actinonin or NFF449) were added to corresponding wells using a 384-pin tool device (V&P Scientific, San Diego, CA, USA). After 30 min incubation at RT, the reactions were started by addition of 5 µL of 2 × solutions of substrates (20 µM, mepin α substrate Mca-YVADAPK-K(Dnp) or meprin β substrate Mca-EDEDED-K(Dnp)). Reactions were incubated at RT for 1 h, after which the fluorescence was measured using the Synergy H4 multimode microplate reader (Biotek Instruments) (λexcitation = 324 nm, λemission = 390 nm).
(§3) Both assays followed the same general protocol. A 2 µL portion of 2 × enzyme solution (1.3 and 0.0125 nM for meprin α and meprin β, respectively) in assay buffer (50 mM Hepes, 0.01% Brij-35, pH 7.5) was added to solid bottom black 1536 low volume plates (Corning cat# 7261). Next, 30 nL of test compounds or pharmacological control (actinonin or NFF449) was added to corresponding wells using a 1536 pin tool device (V&P Scientific, San Diego). After 30 min incubation at RT, the reactions were started by addition of 2 µL of 2x solutions of substrates (20 µM, meprin α substrate Mca-YVADAPK-K(Dnp) or meprin β substrate Mca-EDEDED-K(Dnp)). Reactions were incubated at RT for 1 h, after which the fluorescence was measured using the Viewlux multimode microplate reader (Perkin Elmer) (λexcitation = 324 nm, λemission = 390 nm).
(§4) The miniaturized 1536-well plate format meprin α and meprin β assays were used to screen a collection of approximately 650,000 compounds (The Scripps Research library, La Jolla, CA, USA) on the automated Kalypsys/GNF platform at The Scripps Research Molecular Screening Center (SRMSC, Jupiter, FL, USA: http://hts.florida.scripps.edu/). Both uHTS campaigns were run separately but in a similar manner. Briefly, the first step was the primary screen of all test compounds as singlicates against the meprin α and meprin β target at a final concentration of 7.0 μM. Next, compounds selected as primary hits were cherry-picked and retested in triplicate against the primary screen target and its antitarget (meprin α for the meprin β screening effort, and vice versa) at a same final concentration of 7.0 μM. The additional counter screen assays against related metzincins (MMP-8, MMP-14, and ADAM10) were performed in triplicate at a final concentration of 7.0 μM. The final step was the titration of selected hits as 10-point, 1:3 serial dilutions in both the target and antitarget assay, starting at a final nominal concentration of 17 μM. […] Wells treated with DMSO only were used as negative controls and 0% inhibition reference. […] All data generated during this effort were uploaded to the SRMSC’s institutional screening database (Assay Explorer, Symyx). Sample to background (S/B) ratios, as well as Z and Z’ values, were calculated on a per plate basis as described 14. Curve fitting and resulting IC50 determinations were performed as previously reported.

meprin β [5] = biological target: T2, meprin β (Homo sapiens, UniProt Q16820); assay: Meprin β assay, fluorogenic substrate (Mca)-EDEDED-(K-ε-Dnp), 384 and 1536 well plate formats; format: biochemical; details: read-out: IC50
T2 sequence (Q16820 62-594 limits assumed): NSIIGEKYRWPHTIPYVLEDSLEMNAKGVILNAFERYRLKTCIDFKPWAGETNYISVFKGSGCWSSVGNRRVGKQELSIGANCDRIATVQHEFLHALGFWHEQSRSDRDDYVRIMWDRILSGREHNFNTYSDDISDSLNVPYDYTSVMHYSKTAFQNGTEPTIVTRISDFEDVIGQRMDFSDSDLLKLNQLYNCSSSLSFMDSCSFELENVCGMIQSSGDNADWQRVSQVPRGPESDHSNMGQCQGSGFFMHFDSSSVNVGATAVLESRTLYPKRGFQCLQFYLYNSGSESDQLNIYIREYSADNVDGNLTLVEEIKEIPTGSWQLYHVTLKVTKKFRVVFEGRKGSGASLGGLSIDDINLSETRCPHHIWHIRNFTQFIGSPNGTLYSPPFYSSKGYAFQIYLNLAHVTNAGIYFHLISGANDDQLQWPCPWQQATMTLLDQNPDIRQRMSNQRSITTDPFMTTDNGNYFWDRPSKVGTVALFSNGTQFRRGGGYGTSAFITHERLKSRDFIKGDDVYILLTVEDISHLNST
Description: as §1, §2, §3, §4

In the case of `O=C(CN(Cc1ccc(Cl)c(O)c1F)Cc1ccc(Cl)c(O)c1F)NO` [Compound 8i], the IC50 (meprin α [1]; read-out: IC50 meprin α) is given as 368 nM, the “selective against meprin α” value (meprin β [2]) is given as 15 fold and the IC50 (meprin β [2]; read-out: IC50 meprin β) is given as 24 nM. For the same molecule, the “effect on MMP and ADAM activity” value (MMP and ADAM) was “only limited effect”.

For `O=C(CN(Cc1ccc(F)c(O)c1F)Cc1ccc(F)c(O)c1F)NO` [Compound 8h], the IC50 (meprin α [1]; read-out: IC50 meprin α) is given as 626 nM, the “selective against meprin α” value (meprin β [2]) is given as 27 fold and the IC50 (meprin β [2]; read-out: IC50 meprin β) is given as 23 nM. For the same molecule, the “effect on MMP and ADAM activity” value (MMP and ADAM) was “only limited effect”.

`COc1ccc2c(CC(=O)N[C@@H](Cc3ccc(O)cc3)C(=O)N[C@H](C(=O)N[C@@H](C)C(=O)N[C@@H](CC(=O)O)C(=O)N[C@@H](C)C(=O)N3CCC[C@H]3C(=O)N[C@@H](CCCCN)C(=O)N[C@@H](CCCCNc3ccc([N+](=O)[O-])cc3[N+](=O)[O-])C(N)=O)C(C)C)cc(=O)oc2c1` [meprin α substrate, (Mca)-YVADAPK-(K-ε-Dnp)] (Mca-YVADAPKK(Dnp)-NH2) showed a Km (meprin α [3]) of 2.4 ± 0.3 µM.

In the case of `O=C(CCN(CCc1ccc2c(c1)OCCO2)CCc1ccc2c(c1)OCCO2)NO` [Compound 10d], the “selectivity against meprin β (Selectivity Fold)” value (meprin α [1]) is given as 18 fold, the IC50 (meprin α [1]; read-out: Meprin α IC50) is given as 160 nM and the IC50 (meprin β [2]; read-out: Meprin β IC50) is given as 2950 nM.

In the case of `O=C(CN(Cc1cccc(C(=O)O)c1)S(=O)(=O)c1cccc(C(=O)O)c1)NO` [Compound 11g], the IC50 (meprin α [1]; read-out: IC50 meprin α) is listed as 2740 nM, the “selectivity against meprin α” value (meprin β [2]) is listed as 46 fold and the IC50 (meprin β [2]; read-out: IC50 meprin β) is listed as 60 nM. For the same molecule, the “selectivity against adamalysins and matrixins” value (MMP and ADAM) was “good selectivity”.

For `O=C(CCN(CCc1ccc2c(c1)OCO2)CCc1ccc2c(c1)OCO2)NO` [Compound 10e], the “selectivity against meprin β (Selectivity Fold)” value (meprin α [1]) is given as 19 fold, the IC50 (meprin α [1]; read-out: Meprin α IC50) is given as 400 nM and the IC50 (meprin β [2]; read-out: Meprin β IC50) is given as 7590 nM.

In the case of `Cc1nc(/N=N/c2cc(S(=O)(=O)O)c3cc([N+](=O)[O-])cc(S(=O)(=O)O)c3c2)c(COP(=O)(O)O)c(C=O)c1O` [PPNDS], the Ki (meprin β [2]) is listed as 8 nM.

For `CCCCC[C@H](CC(=O)NO)C(=O)N[C@H](C(=O)N1CCC[C@H]1CO)C(C)C` [Actinonin, actinonin], the increased apparent potency (meprin α [4]; 2.5 µM substrate condition) was 2 fold, the IC50 (meprin α [4]; 1536 wpf, 1.3 nM enzyme, substrate 2.5uM, time 30 min, read-out: Actinonin IC50) was 3 nM and the IC50 (meprin α [4]; 1536 wpf, 1.3 nM enzyme, substrate 2.5uM, time 60 min, read-out: Actinonin IC50) was 3.4 nM. It also gave an IC50 (meprin α [4]; 1536 wpf, 1.3 nM enzyme, substrate 5uM, time 30 min, read-out: Actinonin IC50) of 3.2 nM, an IC50 (meprin α [4]; 1536 wpf, 1.3 nM enzyme, substrate 10uM, time 30 min, read-out: Actinonin IC50) of 5.4 nM and an IC50 (meprin α [4]; 1536 wpf, 1.3 nM enzyme, substrate 10uM, time 60 min, read-out: Actinonin IC50) of 6.4 nM. It also gave an IC50 (meprin α [4]; 1536 wpf, 1.3 nM enzyme, substrate 10uM, time 90 min, read-out: Actinonin IC50) of 6.9 nM, an IC50 (meprin α [4]; 1536 wpf, enzyme 0.32nM, time 30 min, read-out: Actinonin IC50) of 5.18 nM and an IC50 (meprin α [4]; 1536 wpf, enzyme 0.32nM, time 60 min, read-out: Actinonin IC50) of 5.54 nM. The IC50 (meprin α [4]; 1536 wpf, enzyme 0.32nM, time 90 min, read-out: Actinonin IC50) was 5.83 nM, the IC50 (meprin α [4]; 1536 wpf, enzyme 0.65nM, time 30 min, read-out: Actinonin IC50) was 4.11 nM and the IC50 (meprin α [4]; 1536 wpf, enzyme 0.65nM, time 60 min, read-out: Actinonin IC50) was 4.99 nM. It also gave an IC50 (meprin α [4]; 1536 wpf, enzyme 0.65nM, time 90 min, read-out: Actinonin IC50) of 5.2 nM, an IC50 (meprin α [4]; 1536 wpf, enzyme 1.3nM, time 30 min, read-out: Actinonin IC50) of 4.84 nM and an IC50 (meprin α [4]; 1536 wpf, enzyme 1.3nM, time 60 min, read-out: Actinonin IC50) of 5.94 nM. For the same molecule, the IC50 (meprin α [4]; 1536 wpf, enzyme 1.3nM, time 90 min, read-out: Actinonin IC50) was 6.33 nM, the IC50 (meprin α [4]; Meprin α 384 wpf, read-out: IC50) was 11 nM and the IC50 (meprin α [4]; Meprin α 1536 wpf, read-out: IC50) was 5.7 nM. The IC50 (meprin α [4]; control compound in primary HTS campaign, n = 11 plates, read-out: IC50) was 2.9 ± 0.12 nM, the IC50 (meprin β [5]; Meprin β 384 wpf) was 22000 nM and the IC50 (meprin β [5]; Meprin β 1536 wpf) was 9750 nM.

From PMC8000592, “Discovery and Optimization of Selective Inhibitors of Meprin α (Part I)” (Pharmaceuticals, 2021)
